Source: patent US20230373934A1, “ANDROGEN RECEPTOR MODULATORS AND METHODS FOR THEIR USE” (ESSA Pharma, Inc., priority 2022, published 2023)
pIC50: −log10 of the molar value.

Molecular target: T1, androgen receptor (AR) (Homo sapiens, UniProt P10275, T878A)
T1 construct: endogenous in cells; host or cells: LNCaP
T1 sequence (P10275 1-920 T878A): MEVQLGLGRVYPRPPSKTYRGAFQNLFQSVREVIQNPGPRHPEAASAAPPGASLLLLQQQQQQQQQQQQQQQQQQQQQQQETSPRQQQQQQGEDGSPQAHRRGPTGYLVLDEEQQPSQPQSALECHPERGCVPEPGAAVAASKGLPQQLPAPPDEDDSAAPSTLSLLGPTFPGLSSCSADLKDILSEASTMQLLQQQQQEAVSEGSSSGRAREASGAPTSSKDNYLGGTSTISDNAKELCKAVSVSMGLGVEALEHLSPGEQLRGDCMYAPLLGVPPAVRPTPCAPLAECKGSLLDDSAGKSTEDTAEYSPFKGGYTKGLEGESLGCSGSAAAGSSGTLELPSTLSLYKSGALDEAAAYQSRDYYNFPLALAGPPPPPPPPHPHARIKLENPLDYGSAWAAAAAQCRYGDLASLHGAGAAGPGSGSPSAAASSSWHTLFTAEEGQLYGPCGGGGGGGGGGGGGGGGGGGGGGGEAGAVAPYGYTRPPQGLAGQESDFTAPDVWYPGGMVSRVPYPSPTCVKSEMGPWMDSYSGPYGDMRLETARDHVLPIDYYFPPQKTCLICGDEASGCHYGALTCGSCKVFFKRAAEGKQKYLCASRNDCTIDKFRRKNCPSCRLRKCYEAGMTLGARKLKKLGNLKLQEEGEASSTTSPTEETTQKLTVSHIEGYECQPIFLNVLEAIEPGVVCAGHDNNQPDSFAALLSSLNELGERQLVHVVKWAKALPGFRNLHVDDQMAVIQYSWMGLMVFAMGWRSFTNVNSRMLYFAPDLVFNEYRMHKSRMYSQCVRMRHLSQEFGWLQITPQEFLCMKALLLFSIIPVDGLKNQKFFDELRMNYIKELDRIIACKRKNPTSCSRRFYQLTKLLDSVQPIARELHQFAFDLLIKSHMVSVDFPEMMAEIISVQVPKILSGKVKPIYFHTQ
Assay: Androgen-induced PSA-luciferase assay, Luciferase Assay A (LNCaP transiently transfected with PSA (6.1 kb)-luciferase reporter)
Assay type: cell-based
Conditions: LNCaP cells, 1 h pretreatment, R1881 (1 nM) 24 h, read-out: PSA-Luc IC50 Range
Method: The PSA (6.1 kb)-luciferase reporter contains functional AREs (androgen response elements) to which AR binds in response to androgen to induce luciferase activity. LNCaP cells were transiently transfected with the PSA (6.1 kb)-luciferase reporter for 24 h, and then pretreated with vehicle (DMSO) or indicated concentration of representative compounds for one hour prior to the addition of synthetic androgen, R1881 (1 nM). After 24 h of incubation with R1881, the cells were harvested, and relative luciferase activities were determined (FIG. 1). To determine the IC50, treatments were normalized to vehicle control activity induced by R1881 (Table 2).
Luciferase Assay A: Cells were lysed using Passive Lysis Buffer (Promega) and then collected into V-bottom 96-well tissue culture plates. Lysates were centrifuged at 4° C. for 5 minutes at 3000 rpm. To measure luminescence of LNCaP cell lysates the Firefly Luciferase Assay System (Promega) was employed, according to manufacturer's protocol. Relative luminescence units (RLU) in cell lysates were detected for 10 seconds using Promega GloMax-Multi Detection Luminometer (Promega). Values were normalized to protein content. GraphPad Prism graphing software was used to calculate IC50 values. Luciferase Assay A was run for all compounds in Table 2 unless otherwise noted below.
Statistical analyses were performed using GraphPad Prism (Version 6.01 for Windows; La Jolla, CA, USA). Comparisons between treatment and control groups were compared using Two-Way ANOVA with post-hoc Dunnett's and Tukey's tests. Differences were considered statistically significant at P values less than 0.05.

| pIC50 | SMILES |
| --- | --- |
| 5.70 to 6.30 | CC(C)(c1ccc(-c2cnc(N3CCC34CN(S(C)(=O)=O)C4)nc2)cc1)c1cc(Cl)c(OCCCl)c(C#N)c1 [Compound A138] |
| < 5.70 | CS(=O)(=O)N1CCc2cc(-c3ccc(Oc4cc(Cl)c(OCCCl)c(C#N)c4)cc3)ccc2C1 [Compound A120] |
| < 5.70 | CC(C)(c1ccc(OCc2ccnc(NS(C)(=O)=O)n2)cc1)c1cc(Cl)c(N2CCC(F)CC2)c(C#N)c1 [Compound A153] |
| < 5.70 | CC(C)(c1cc(Cl)c(OCCCl)c(C#N)c1)c1ccc(OCc2ccnc(NS(C)(=O)=O)n2)c(CN2CCNCC2)c1 [Compound A113] |
| < 5.70 | CC(C)(c1ccc(-c2cn([C@H]3C[C@H](NS(C)(=O)=O)C3)nn2)cc1)c1cc(Cl)c(OCCCl)c(C#N)c1 [Compound A77] |
| 5.70 to 6.30 | CC(C)(c1ccc(OCC2CC3(C2)CN(S(C)(=O)=O)C3)cc1)c1cc(Cl)c(OCCCl)c(C#N)c1 [Compound A71] |
| < 5.70 | CC(C)(c1ccc(OCc2ccnc(NS(C)(=O)=O)n2)cc1)c1cc(Cl)c(OCCN2C(=O)CCCC2=O)c(C#N)c1 [Compound A180] |
| > 6.30 | CS(=O)(=O)NCC1CN(c2ncc(-c3ccc(Oc4cc(Cl)c(OCCCl)c(C#N)c4)cc3)cn2)C1 [Compound A96] |
| < 5.70 | CC(C)(c1ccc(OCc2ccnc(NS(C)(=O)=O)n2)cc1)c1cc(Cl)c(N2CCC3(CC2)CC3)c(C#N)c1 [Compound A133] |
| > 6.30 | CCCOc1c(Cl)cc(C(C)(C)c2ccc(OCc3ccnc(NS(C)(=O)=O)n3)cc2)cc1C#N [Compound A178] |
| 5.70 to 6.30 | CC(C)(c1ccc(OC[C@H]2CC[C@H](NS(C)(=O)=O)CC2)cc1)c1cc(Cl)c(OCCCl)c(C#N)c1 [Compound A63] |
| 5.70 to 6.30 | CS(=O)(=O)N1CC2(CC(Oc3ccc(Oc4cc(Cl)c(OCCCl)c(C#N)c4)cc3)C2)C1 [Compound A137] |
| < 5.70 | CC1(O)CN(Cc2c(Cl)cc(C(C)(C)c3ccc(OCc4ccnc(NS(C)(=O)=O)n4)cc3)cc2Cl)C1 [Compound A161] |
| 5.70 to 6.30 | CC(C)(c1ccc(OCc2ccnc(NS(=O)(=O)c3ccoc3)n2)cc1)c1cc(Cl)c(OCCCl)c(C#N)c1 [Compound A103] |
| 5.70 to 6.30 | CN(c1nccc(Oc2ccc(C(C)(C)c3cc(Cl)c(OCCCl)c(C#N)c3)cc2)n1)S(C)(=O)=O [Compound A135] |
| 5.70 to 6.30 | CS(=O)(=O)NCc1ccc(-c2ccc(Oc3cc(Cl)c(OCCCl)c(C#N)c3)cc2)cn1 [Compound A21] |
| < 5.70 | CC(C)(c1ccc(O[C@H]2CC[C@H](NS(C)(=O)=O)CC2)cc1)c1cc(Cl)c(OCCCl)c(C#N)c1 [Compound A33] |
| < 5.70 | CC(C)(c1ccc(-c2ccc(N3CCC(NS(C)(=O)=O)CC3)nc2)cc1)c1cc(Cl)c(OCCCl)c(C#N)c1 [Compound A58] |
| < 5.70 | CC(C)(c1ccc(OCc2ccnc(-n3cc(S(N)(=O)=O)cn3)n2)cc1)c1cc(Cl)c(OCCCl)c(C#N)c1 [Compound A104] |
| 5.70 to 6.30 | CS(=O)(=O)NC1CN(c2ccc(-c3ccc(Oc4cc(Cl)c(OCCCl)c(C#N)c4)cc3)cn2)C1 [Compound A38] |
| 5.70 to 6.30 | CC(C)(c1ccc(OCc2ccnc(NS(C)(=O)=O)n2)cc1)c1cc(Cl)c(OC2CCC2)c(C#N)c1 [Compound A52] |
| < 5.70 | CC(C)(c1ccc(CN2CC(NS(C)(=O)=O)CC(F)(F)C2)cc1)c1cc(Cl)c(OCCCl)c(C#N)c1 (stereo not drawn) [Compound A46] |
| 5.70 to 6.30 | CC(C)(c1ccc(Oc2cnc(CNS(C)(=O)=O)nc2)cc1)c1cc(Cl)c(OCCCl)c(C#N)c1 [Compound A86] |
| < 5.70 | CS(=O)(=O)NC1CN(c2ncc(-c3ccc(Oc4cc(Cl)c(OCCCl)c(C#N)c4)cc3)cn2)C1 [Compound A70] |
| < 5.70 | CS(=O)(=O)Nc1cnc2cc(C3CCN(Cc4cc(Cl)c(OCCCl)c(C#N)c4)CC3)ccc2n1 [Compound A93] |
| < 5.70 | CC(C)(c1ccc(-c2cnc(NC3CCN(S(C)(=O)=O)CC3)nc2)cc1)c1cc(Cl)c(OCCCl)c(C#N)c1 [Compound A151] |
| 5.70 to 6.30 | CC(C)(c1ccc(OCc2ccnc(NS(C)(=O)=O)n2)cc1)c1cc(Cl)c(OCc2ccccc2)c(C#N)c1 [Compound A182] |
